Assay [1] has as its target T1, purified DHFR of strain Sp1/1 of Streptococcus pneumoniae (Streptococcus pneumoniae serotype 4, UniProt Q54801).
T1 sequence (Q54801 1-168 I100L): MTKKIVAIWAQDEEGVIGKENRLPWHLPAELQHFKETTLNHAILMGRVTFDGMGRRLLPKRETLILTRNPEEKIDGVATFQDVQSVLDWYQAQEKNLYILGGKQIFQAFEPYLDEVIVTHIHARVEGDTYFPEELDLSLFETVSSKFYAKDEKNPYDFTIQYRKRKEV
The assay is classed as biochemical.

The target in assay [2] is purified DHFR of strain 157/4696 of Staphylococcus aureus (Staphylococcus aureus, UniProt P13955). Description: biochemical.
Assay [3] concerns Staphylococcus aureus 101. Description: MIC against Staphylococcus aureus 101. The class given is cell-based. Conditions: Staphylococcus aureus 101, MRSA- and trimethoprim-resistant, clinical isolate; for MIC: read-out: MIC Sa101.
Assay [4] deals with Streptococcus pneumoniae 1/1. Description: MIC against Streptococcus pneumoniae 1/1. The class given is cell-based. The following applies: Streptococcus pneumoniae 1/1, trimethoprim- and penicillin-resistant, serotype 6, clinical isolate; for MIC: read-out: MIC Sp1/1.
[5] abbreviates: Table 2, IC50 against purified DHFR of strain Sp1/1.
The mark [6] stands for this setting: Table 2, IC50 against purified DHFR of strain 157/4696 (highly trimethoprim-resistant; clinical isolate), read-out: DHFR Sa1.

Values after ≈ are worked out from the molar mass of the structure shown. Read-outs that look alike come from different tables or passages of the source. Some results are limits rather than exact numbers.

Sequence of purified DHFR of strain 157/4696 of Staphylococcus aureus (P13955 whole entry): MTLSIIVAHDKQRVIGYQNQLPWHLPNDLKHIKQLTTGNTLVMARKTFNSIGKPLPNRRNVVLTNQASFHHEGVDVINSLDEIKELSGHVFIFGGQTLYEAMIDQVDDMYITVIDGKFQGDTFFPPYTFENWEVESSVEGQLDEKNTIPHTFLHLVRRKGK

On to “5-[2-Cyclopropylmethyl-6-ethoxy-4′-(2-morpholin-4-yl-ethoxy)-biphenyl-4-ylmethyl]-pyrimidine-2,4-diamine [Example 56-]”, for which the IC50 in assay [1] (setting [5]) was 32 nM; in assay [2] (setting [6]), 800 nM. In assay [3] (Table 2), the “MIC Sa101” value came to 8 µg/mL. Besides, the “MIC Sp1/1” value in assay [4] (Table 2) was 2 µg/mL.

For the compound “5-[4′-Amino-2-[(2-tetrahydropyran-4-yl)-ethoxy]-6-ethoxy-4′-methyl-biphenyl-4-ylmethyl]-pyrimidine-2,4-diamine [Example 11-b]”, the IC50 in assay [1] (setting [5]) turned out to be 9.8 nM; in assay [2] (setting [6]), 900 nM. Besides, in assay [3] (Table 2), the “MIC Sa101” value is 8 µg/mL. Also, in assay [4] (Table 2), the “MIC Sp1/1” value came to 1 µg/mL.

Take `CCOc1cc(Cc2cnc(N)nc2N)cc(OCC)c1-c1ccc([S+](C)[O-])cc1` (racemic) [Example 02-j, (RS)-5-(2,6-Diethoxy-4′-methanesulphinyl-biphenyl-4-ylmetyl)-pyrimidine-2,4-diamine]: the values for the IC50 in assay [1] (setting [5]) and in assay [2] were 72 nM and 1700 nM, respectively. In addition, the MIC in assay [3] (Table 2) is 8 µg/mL (≈ 18.8 µM); in assay [4] (Table 2), 4 µg/mL (≈ 9.38 µM).

`CCOc1cc(Cc2cnc(N)nc2N)cc(OCC)c1-c1ccc(N2CC(COC)OC2=O)cc1` (racemic) [Example 04-s, (RS)-3-[4′-(2,4-Diamino-pyrimidin-5-ylmethyl)-2′,6′-diethoxy-biphenyl-4-yl]-5-methoxymethyl-oxazolidin-2-one]: the IC50 is 61 nM in assay [1] (setting [5]) and 1900 nM in assay [2]. For the same compound, the MIC was 8 µg/mL (≈ 16.2 µM) in assay [3] (Table 2) and 4 µg/mL (≈ 8.1 µM) in assay [4] (Table 2).

For the compound `CCOc1cc(Cc2cnc(N)nc2N)cc(OCCC2CCCCO2)c1-c1cccc(N)c1` (racemic) [Example 07-h, (RS)-5-[3′-Amino-6-ethoxy-2-[2-(tetrahydro-pyran-2-yl)-ethoxy]-biphenyl-4-ylmethyl]-2yrimidine-2,4-diamine], the IC50 in assay [1] (setting [5]) came out at 27 nM; in assay [2], 2200 nM. Also, the MIC in assay [3] (Table 2) was determined as 8 µg/mL (≈ 17.3 µM); in assay [4] (Table 2), 2 µg/mL (≈ 4.31 µM).

Consider `CCOc1cc(Cc2cnc(N)nc2N)cc(OCCC2CCCCO2)c1-c1ccc(O)cc1` (racemic) [Example 08-t, (RS)-4′-(2,4-Diamino-pyrimidin-5-ylmethyl)-6′-ethoxy-2′-[2-(tetrahydro-pyran-2-yl)-ethoxy]-biphenyl-4-ol], for which the IC50 in assay [1] (setting [5]) is 25 nM; in assay [2], 2400 nM. For the same compound, the values for the MIC in assay [3] (Table 2) and in assay [4] (Table 2) were 8 µg/mL (≈ 17.2 µM) and 2 µg/mL (≈ 4.31 µM), respectively.

With `CCOc1cc(Cc2cnc(N)nc2N)cc(O[C@@H]2CCC[C@H]2CC#N)c1-c1ccc(O)cc1` (racemic) [Example 08-u, rac-(E)-{2-[4-(2,4-Diamino-pyrimidin-5-ylmethyl)-6-ethoxy-4′-hydroxy-biphenyl-2-yloxy]-cyclopentyl}-acetonitrile], the IC50 amounted to 150 nM in assay [1] (setting [5]) and 1800 nM in assay [2] (setting [6]). In assay [3] (Table 2), the “MIC Sa101” value turned out to be 8 µg/mL (≈ 17.4 µM). In addition, the “MIC Sp1/1” value in assay [4] (Table 2) was determined as 4 µg/mL (≈ 8.7 µM).

`CCOc1cc(Cc2cnc(N)nc2N)cc(OC2CCCC2COC)c1-c1ccc(O)cc1` (racemic) [Example 08-v, rac-(E)-5-[6-Ethoxy-4′-hydroxy-2-(2-methoxymethyl-cyclopentyloxy)-biphenyl-4-ylmethyl]-pyrimidine-2,4-diamine]: the IC50 in assay [1] (setting [5]) was 82 nM; in assay [2], 1500 nM. For the same compound, the results for the MIC in assay [3] (Table 2) and in assay [4] (Table 2) were 8 µg/mL (≈ 17.2 µM) and 2 µg/mL (≈ 4.31 µM), respectively.

Regarding `CCOc1cc(Cc2cnc(N)nc2N)cc(O[C@@H]2CCC[C@H]2OC)c1-c1ccc(O)cc1` (relative stereo) [Example 08-y, 5-[6-Ethoxy-2((trans)-2-methoxy-cyclopentyloxy)-4′-hydroxy-biphenyl-4-ylmethtl]-pyrimidine-2,4-diamine], the IC50 in assay [1] (setting [5]) is 95 nM; in assay [2], 2700 nM. For the same compound, the results for the MIC in assay [3] (Table 2) and in assay [4] (Table 2) were 8 µg/mL (≈ 17.8 µM) and 4 µg/mL (≈ 8.88 µM), respectively.

`CCOc1cc(Cc2cnc(N)nc2N)cc(OCC)c1-n1cccc1` [Epiroprim, reference compound]: the IC50 in assay [1] stood at 190 nM. For the same compound, the MIC stood at 16 µg/mL (≈ 45.3 µM) in assay [3] (Table 1) and 4 µg/mL (≈ 11.3 µM) in assay [4] (Table 1). Also, the “MIC Sa101” value in assay [3] (Table 2) is 16 µg/mL (≈ 45.3 µM). In addition, the “MIC Sp1/1” value in assay [4] (Table 2) was found to be 4 µg/mL (≈ 11.3 µM).

Consider `CCOc1cc(Cc2cnc(N)nc2N)cc(OCC)c1-c1ccc(OC)c(COC)c1` [Example 02-aa, 5-(2,6-Diethoxy-4′-methoxy-3′-methoxymethyl-biphenyl-4-ylmethyl)-pyrimidine-2,4-diamine], for which the IC50 turned out to be 60 nM in assay [1] (setting [5]) and 2500 nM in assay [2]. Further, the MIC is 8 µg/mL (≈ 18.2 µM) in assay [3] (Table 2) and 4 µg/mL (≈ 9.12 µM) in assay [4] (Table 2).

Turning to `CCOc1cc(Cc2cnc(N)nc2N)cc(OCC)c1-c1ccc(CO)s1` [Example 02-ab, [5-[4-(2,4-Diamino-pyrimidin-5-ylmethyl)-2,6-diethoxy-phenyl]-thiophen-2-yl]-methanol], the IC50 in assay [1] (setting [5]) is 38 nM; in assay [2], 880 nM. The MIC is 4 µg/mL (≈ 9.99 µM) in assay [3] (Table 2) and 2 µg/mL (≈ 4.99 µM) in assay [4] (Table 2).

Take `CCOc1cc(Cc2cnc(N)nc2N)cc(OCC)c1-c1ccc(CN2CCOCC2)s1` [Example 02-ac, 5-f3,5-Diethoxy-4-(5-morpholin-4-ylmethyl-thiophen-2-yl)-benzyl-pyrimidine-2,4-diamine]: the figures for the IC50 in assay [1] (setting [5]) and in assay [2] were 65 nM and 650 nM, respectively. Further, the MIC in assay [3] (Table 2) was 8 µg/mL (≈ 17 µM); in assay [4] (Table 2), 2 µg/mL (≈ 4.26 µM).

For the compound `CCOc1cc(Cc2cnc(N)nc2N)cc(OCC)c1-c1ccc(C)c(N)c1` [Example 02-ad, 5-(3′-Amino-2,6-diethoxy-4′-methyl-biphenyl-4-ylmethyl)-pyrimidine-2,4-diamine], the IC50 in assay [1] (setting [5]) is 85 nM; in assay [2], 2000 nM. The MIC was determined as 8 µg/mL (≈ 20.3 µM) in assay [3] (Table 2) and 4 µg/mL (≈ 10.2 µM) in assay [4] (Table 2).

On to `CCOc1cc(Cc2cnc(N)nc2N)cc(OCC)c1-c1ccc(O)c(F)c1` [Example 02-ae, 4′-(2,4-Diamino-pyrimidin-5-ylmethyl)-2′,6′-diethoxy-3-fluoro-biphenyl-4-ol], for which the results for the IC50 in assay [1] (setting [5]) and in assay [2] were 150 nM and 1600 nM, respectively. Moreover, the MIC in assay [3] (Table 2) was determined as 4 µg/mL (≈ 10 µM); in assay [4] (Table 2), 8 µg/mL (≈ 20.1 µM).

On to `CCOc1cc(Cc2cnc(N)nc2N)cc(OCC)c1-c1cccc(S(C)(=O)=O)c1` [Example 02-af, 5-(2,6-Diethoxy-3′-methylsulphonyl-biphenyl-4-ylmethyl)-pyrimidine-2,4-diamine], for which the IC50 was 85 nM in assay [1] (setting [5]) and 1800 nM in assay [2]. Moreover, the MIC in assay [3] (Table 2) and in assay [4] (Table 2) was 8 µg/mL (≈ 18.1 µM) throughout.

For the compound `CCOc1cc(Cc2cnc(N)nc2N)cc(OCC)c1-c1ccc(C=O)cc1` [Example 02-ag, 4′-(2,4-Diamino-pyrimidin-5-ylmetyl)-2′,6′-diethoxy-biphenyl-4-carbaldehyde], the IC50 in assay [1] (setting [5]) came to 130 nM; in assay [2] it was 2200 nM. For the same compound, the MIC in assay [3] (Table 2) and in assay [4] (Table 2) was 8 µg/mL (≈ 20.4 µM) throughout.

As to `CCOc1cc(Cc2cnc(N)nc2N)cc(OCC)c1-c1ccc2[nH]ccc2c1` [Example 02-d, 5-(3,5-Diethoxy-4-(1H-indol-5-yl)-benzyl)-pyrimidine-2,4-diamine], the IC50 came to 35 nM in assay [1] (setting [5]) and 1400 nM in assay [2]. Besides, the values for the MIC in assay [3] (Table 2) and in assay [4] (Table 2) were 8 µg/mL (≈ 19.8 µM) and 1 µg/mL (≈ 2.48 µM), respectively.

With `CCOc1cc(Cc2cnc(N)nc2N)cc(OCC)c1-c1ccc2cc[nH]c2c1` [Example 02-e, 5-[3,5-Diethoxy-4-(1H-indol-6-yl)-benzl]-pyrimidine-2,4-diamine], the values for the IC50 in assay [1] (setting [5]) and in assay [2] were 22 nM and 1000 nM, respectively. The results for the MIC in assay [3] (Table 2) and in assay [4] (Table 2) were 4 µg/mL (≈ 9.91 µM) and 2 µg/mL (≈ 4.96 µM), respectively.

As for `CCOc1cc(Cc2cnc(N)nc2N)cc(OCC)c1-c1ccc2cc(O)ccc2c1` [Example 02-f, 6-[4-(2,4-Diamino-pyrimidin-5-ylmethyl)-2,6-diethoxy-phenyl]-naphthalen-2-ol], the IC50 in assay [1] (setting [5]) was 28 nM; in assay [2], 1700 nM. Moreover, the MIC in assay [3] (Table 2) and in assay [4] (Table 2) was 4 µg/mL (≈ 9.29 µM) in each case.

Consider `CCOc1cc(Cc2cnc(N)nc2N)cc(OCC)c1-c1ccc2[nH]ncc2c1` [Example 02-g, 5-[3,5-Diethoxy-4-(1H-indazol-5-yl)-benzyl]-pyrimidine-2,4-diamine], for which the IC50 in assay [1] (setting [5]) was determined as 12 nM; in assay [2], 650 nM. For the same compound, the MIC was found to be 8 µg/mL (≈ 19.8 µM) in assay [3] (Table 2) and 2 µg/mL (≈ 4.94 µM) in assay [4] (Table 2).

Take `CCOc1cc(Cc2cnc(N)nc2N)cc(OCC)c1-c1ccc(NC(C)=O)cc1` [Example 04-p, N-[4′-(2,4-Diamino-pyrimidin-5-ylmethl)-2′,6′-diethoxy-biphen-4-yl]-acetamide]: the “MIC Sa101” value in assay [3] (Table 2) stood at 8 µg/mL (≈ 19 µM). Further, in assay [4] (Table 2), the “MIC Sp1/1” value was determined as 2 µg/mL (≈ 4.74 µM).

`CCOc1cc(Cc2cnc(N)nc2N)cc(OCC2(CC#N)CC2)c1-c1ccc(OC)cc1` [Example 09-b] registered an IC50 in assay [2] of 1900 nM. The MIC in assay [3] (Table 2) was 8 µg/mL (≈ 17.4 µM); in assay [4] (Table 2), 2 µg/mL (≈ 4.35 µM).

Consider `COc1cc(Cc2cnc(N)nc2N)cc(OC)c1OC` [Trimethoprim, reference compound], for which the MIC is 32 µg/mL (≈ 110 µM) in assay [3] (Table 1) and greater than 32 µg/mL in assay [4] (Table 1). For the same compound, the “MIC Sa101” value in assay [3] (Table 2) came to 32 µg/mL (≈ 110 µM). For the same compound, the “MIC Sp1/1” value in assay [4] (Table 2) is greater than 32 µg/mL.
